In brackets after ≈: the same amount, converted by molar mass. Where a SMILES comes first, the peptide text is derived from it. [ ]: non-standard residue; d: D form. Sar = CNCC(=O)O
How the values were obtained:
peptide transporters = assay: [3H]-GlySar cellular uptake in MDCK-MDR1 cells; format: cell-based; conditions: DPBS pH 7.4, 37 °C
MDCK-WT cells = assay: Cytotoxicity by LDH assay; format: cell-based
[1] = Aqueous solubility studies

With CN(CC(=O)O)C(=O)CN [Gly-Sar] (H-Gly-[Sar]-OH) the “[3H]-GlySar uptake in the presence of compound (percentage of control)” value (“[3H]-GlySar uptake … (percentage of control)” for short) (peptide transporters; 1 mM) was 40% and the “[3H]-GlySar uptake … (percentage of control)” value (peptide transporters; 2 mM) was 30%.
For C[C@]12C=CC(=O)C=C1CC[C@@H]1[C@@H]2[C@@H](O)C[C@@]2(C)[C@H]1CC[C@]2(O)C(=O)CO [prednisolone, Prednisolone], the “Cytotoxic effects (LDH release)” value (MDCK-WT cells; 5–250 µM, 4 h) was “did not generate any cytotoxic effects”, the “[3H]-GlySar uptake … (percentage of control)” value (peptide transporters; 100 µM) was “No significant inhibition” and the solubility at 4 h [1] was 310 ± 30 µg/mL (≈ 860 µM).
With Triton x-100 the “Cytotoxicity (LDH release)” value (MDCK-WT cells; 1%, positive control) was “displayed significant cytotoxicity” and the “Increase in absorbance (LDH) versus negative control” value (MDCK-WT cells; 1%, positive control) was “About 5 fold”.
